These results are taken from patent US20230271949A1, “GLP-1R MODULATING COMPOUNDS” (ASCLETIS BIOSCIENCE CO., LTD., priority 2022, published 2023).

The target of test [1] is T1, GLP-1R (Homo sapiens, UniProt P43220). Kind of test: GLP-1R agonist cAMP stimulation assay (HTRF cAMP). The class given is cell-based. To be noted: HEK293 cell line expressing GLP-1 target; HTRF cAMP agonist mode, 30 min at RT. In short, it runs like this: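 Read-out was HTRF (665/615 ratio), interpolated onto a cAMP standard curve and normalised to DMSO (0%) and maximal GLP-1(7-37) reference (100%) wells. Assay: GLP-1R cells at 1.0×E5/mL incubated with compound dilution series (3-fold, 10 points) for 30 min at room temperature before 60 min detection.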
Background: Time-resolved FRET reads energy transfer from a long-lived donor to a nearby acceptor.

The target in test [2] is T1, GLP-1R. Description: Tag-lite binding assay (competition with GLP-1 receptors red agonist). To be noted: for IC50: HEK293 GLP-1 cells labeled with SNAP-Lumi4-Tb, red agonist 4.917 nM, 23° C., 2 h; for Ki: calculated from sample IC50 and red agonist Kd. On the procedure: B. Tag-Lite Binding Assay
The cell line was constructed by WuXi.
10) Dispense cells into cell plate (1.8 M cells/well in 2 ml medium of 6-well plate, total 4 wells).
Second Day: Tag-Lite Binding Assay
3) The cell culture medium is removed from the 6-well plate and then 1 mL of Tag-lite SNAP-Lumi4-Tb diluted in Tag-lite labeling medium are added gently on the cells.
7) The testing compounds and reference compound are serially diluted with 3-fold, 10 points using Echo, then transfer 100 nL compounds to the assay plate.
8) Add the labeled cells to each well according to the plate map, 10000 cells/10 uL/well. Centrifuge the plate at 1000 rpm for 1 min.
9) Incubate the plate at 23° C., 30 min.
10) Add 50 nL of red agonist (final conc.: 4.917 nM) to destination plate using Echo.
11) Incubate the plate at 23° C. for 2 h.
12) Read the plate on an HTRF® compatible reader (at 665 nm and 620 nm).
% Inhibition=100%−(Ratio−LC)/(HC−LC)*100%
HC: The average ratio of adding DMSO wells
LC: The average ratio of adding the top concentration of reference compounds wells
b) The “log (inhibitor) vs. response—Variable slope” model in GraphPad Prism 5.0 was used to fit the dose-response curve of each sample. The sample concentration (x) and its corresponding % Inhibition data (y) were substituted into the model. The sample concentration (abscissa) was x=log(x) transformed. The transformed xy was used as the sample curve to obtain the IC50.
c) Calculate the sample Ki according to the sample IC50 and red agonist Kd. S in the formula is the actual used concentration of red agonist.

Each structure is given as a SMILES string.

T1 sequence (P43220 24-463): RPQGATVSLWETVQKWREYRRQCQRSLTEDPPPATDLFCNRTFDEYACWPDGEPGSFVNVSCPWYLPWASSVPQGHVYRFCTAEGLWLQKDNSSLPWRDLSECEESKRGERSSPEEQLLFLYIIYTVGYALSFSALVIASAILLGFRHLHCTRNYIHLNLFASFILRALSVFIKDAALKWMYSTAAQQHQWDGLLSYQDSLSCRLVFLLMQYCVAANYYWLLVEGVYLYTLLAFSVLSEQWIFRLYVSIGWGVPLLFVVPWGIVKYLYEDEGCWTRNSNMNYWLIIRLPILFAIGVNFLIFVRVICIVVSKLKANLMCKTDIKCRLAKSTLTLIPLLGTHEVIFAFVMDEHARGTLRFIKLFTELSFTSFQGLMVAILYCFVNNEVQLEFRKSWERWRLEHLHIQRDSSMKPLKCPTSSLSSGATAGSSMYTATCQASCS

For orientation: EC50 means the concentration giving half of the maximal effect. Low readings indicate greater potency, high ones weaker potency. By IC50 is commonly meant the concentration that gives 50% inhibition. A lower IC50 goes with higher potency. As a reminder, the Ki is a dissociation constant, usually derived from enzyme kinetics or from competition with a known ligand. `Cc1n[nH]c2c(F)cc(C(=O)Nc3ccc4c(c3)nc(Cc3cc(F)c(-c5cccc(OCc6ccc(Cl)cc6F)n5)cc3CO)n4C[C@@H]3CCO3)cc12` [Compound 416]: a half-maximal effect at GLP-1R [1] (EC50) was put at 0.37 nM. For the same molecule, on GLP-1R [2], the IC50 amounted to 54.3 nM and the Ki is 29.3 nM.
In turn, `Cc1n[nH]c2c(F)cc(C(=O)Nc3ccc4c(c3)nc(Cc3cc(F)c(-c5cccc(OCc6ccc(Cl)cc6F)n5)cc3F)n4C3COC[C@H]3O)cc12` (stereo partly drawn) [Compound 417] had an EC50 on GLP-1R [1] of 0.65 nM. For the same molecule, on GLP-1R [2], the IC50 came out at 137 nM and the inhibition constant Ki was 69.2 nM.
